# Legend:
# PPARγ = molecular target: T1, PPARγ (Homo sapiens, UniProt P37231); experiment: Test on PPARγ activation (GAL4-PPARγ-LBD luciferase reporter in IEC-6 cells); format: cell-based; details: control set at 100, test substance 500 μM, 24 hours
# T1 construct: expressed in transfected cells; host or cells: IEC-6 small intestine epithelial cell line
# T1 sequence (P37231 238-503 limits assumed): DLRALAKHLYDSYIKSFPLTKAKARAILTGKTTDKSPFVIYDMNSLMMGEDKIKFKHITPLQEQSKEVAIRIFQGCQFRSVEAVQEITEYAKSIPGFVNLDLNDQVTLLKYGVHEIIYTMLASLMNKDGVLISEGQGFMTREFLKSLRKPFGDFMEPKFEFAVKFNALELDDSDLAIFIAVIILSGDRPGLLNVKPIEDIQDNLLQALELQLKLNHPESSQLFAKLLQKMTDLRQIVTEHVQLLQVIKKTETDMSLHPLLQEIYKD
# Protocol: The small intestine epithelial cell line IEC-6 was inoculated on a 12 well plate and cultured in DMEM (5% FCS) for 24 hours. A plasmid (pGAL4-PPARγ-LBD) expressing the chimeric molecules of a GAL4-DNA binding domain (DBD) and a PPARγ ligand binding domain (LBD) and a reporter plasmid (pREP) containing a GAL4 binding sequence upstream of a firefly luciferase gene were introduced simultaneously by using a transfection reagent (“QIAGEN”; Superfect transfection reagent), each in an amount of 0.5 μg/well. In order to monitor the transfection efficiency, a renilla luciferase gene was incorporated in the pGAL4-PPARγ-LBD at the same time. The culture broth was then replaced with a DMEM (+250 μM BSA) medium containing a test substance (500 μM), followed by incubation for further 24 hours. After washing with PBS, the cells were lysed using dual luciferase assay system (product of Promega Corporation). To the resulting lysate was added a substrate solution containing luciferin, and firefly and renilla luciferase activities were measured by a luminometer. In the above-described manner, the PPARγ activating capacity was evaluated by measuring the transcriptional activity (luciferase activity) of the PPARγ-dependent gene. It is to be noted that the PPARγ-dependent gene transcriptional activity (luciferase activity) was defined as described below. […]
# [1] = Evaluation of rancid odor (organoleptic); format: physicochemical; set-up: key: A: The sample is almost free from a rancid odor and the odor does not cause discomfort.; B: The sample emits a little rancid odor, but the odor causes little discomfort.; C: The sample emits a rancid odor and the odor causes discomfort.; D: The sample emits a severe rancid odor and the odor causes extreme discomfort; details: oil or fat composition:water=70:30, room temperature for 1 week, smelled
# Protocol: Each sample (each oil or fat composition:water=70:30) prepared in Example 3 was allowed to stand at room temperature for 1 week. The sample was smelled and organoleptic evaluation of rancid odor was performed based on the below-described criteria.
# [2] = Evaluation of gelling properties; format: physicochemical; set-up: key: A: The mixture lacks fluidity and is gelled.; B: The mixture has low fluidity and is gelled slightly.; C: The mixture has fluidity and is partially gelled.; D: The mixture has fluidity and is not gelled at all; details: 70:30 (weight/weight) mixture of oil or fat composition and water, visually observed
# Description: Gelling properties of a 70:30 (weight/weight) mixture of each oil or fat composition and water were visually observed and evaluated based on the below-described criteria. The results are shown in Table 1. • A: The mixture lacks fluidity and is gelled. • B: The mixture has low fluidity and is gelled slightly. • C: The mixture has fluidity and is partially gelled. • D: The mixture has fluidity and is not gelled at all.
SMILES,"PPARγ (PPARγ-dependent transcriptional activity, luciferase, relative to control) (PPARγ)",Rancid odor [1],Gelling properties [2]
"CC/C=C\C/C=C\C/C=C\C/C=C\C/C=C\C/C=C\CCC(=O)O [Oil or Fat Composition 8, Docosahexaenoic acid]",508,D,D
"CC/C=C\C/C=C\C/C=C\C/C=C\C/C=C\CCCC(=O)O [Oil or Fat Composition 7, Eicosapentaenoic acid]",480,D,D
